Data set [1] has as its system HIF-1. The experiment in a line: Immunohistochemistry of mouse bladder tumors, HIF-1. In kind it is in vivo. To be noted: ex vivo mouse bladder tumor, compared to control. The protocol: (§1) Histology slides were prepared and immunohistochemistry was performed at Immunohistochemistry Laboratory at IU Health Pathology. Harvested organ tissue and bladder tumors were fixed in formalin-free IHC Zinc Fixative, embedded in paraffin, and sectioned into 5 μm slices. HIF-1 and VEGF immunohistochemistry was performed using buffered zinc formalin fixed tumor section. Blocking, antigen retrieval, and primary and secondary antibody staining were performed […]. The tissue sections were imaged using Leica DMi1 inverted microscope, and image processing was performed using ImageJ software (Research Services, National Institute of Health). Each tissue section was imaged under ×20 and ×40 magnification, composite images were converted to RGB stacks and integrated density of staining was calculated.
(§2) Angiogenesis and high density of blood vessels has been correlated with poor prognosis, metastasis, and bladder cancer invasion in clinical studies.

For data set [2], the system named is MB49 bladder tumor. The experiment in a line: Intravesical treatment with ultrasound beam steering in orthotopic MB49 bladder cancer mouse model. As to conditions: in vivo.
Excerpt: (§3) Female C57BL/6 mice were anesthetized by 1-2% isoflurane gas inhalation at 2 L/min. Electrocauterization technique was used to create a minor injury on the wall of the bladder for MB49 cells to adhere to. A 24 gauge Teflon catheter (Terumo Surflo PTFE I.V. Catheters, Fisher Scientific) was inserted into the bladder through the urethra. Minor pressure was applied onto the bladder area to release the urine from the bladder. A wire, connected to the electrocautery unit was then instilled into the bladder through the catheter. 1×10^4 MB49 cells were then instilled into the bladder; dwelling time was approximately 20 minutes to allow the cells to adhere to the injured bladder wall.
(§4) After the bubbles were injected intravesically, a pulsed wave Doppler beam was applied for five minutes and B-mode images were recorded.
(§5) The mice were imaged 48 hours after the instillation of the tumors and treatment was administered every other day based on previously established protocols.
(§6) 3D images of bladder tumor were taken every other day using the Vevo 2100 ultrasound imaging system (Fujifilm VisualSonics Inc., Toronto CA). Vevo Lab software was used to manually segment given 3D images in 2D slices, with step sizes that can be as small as 10 μm. Segmentation of a 3D image allowed accurate volume measurements to be taken from each 3D image. […]
In data set [3] the test system is MB49 bladder tumor. As to conditions: MMC 1 μg/mL; ONB-MMC 0.5 μg/mL MMC and 2 mg/mL ONB; intravesical.
Excerpt: as §3, §4, §5, §6
The test system of data set [4] is VEGF. The experiment in a line: Immunohistochemistry of mouse bladder tumors, VEGF. In kind it is in vivo. To be noted: ex vivo mouse bladder tumor, compared to control. The protocol: as §1, §2
Data set [5] relates to MB49 cells. The data set is described as follows: In vitro beam steering factorial design, MB49 cell viability. The format is cell-based, mouse.

As to `CO[C@@]12[C@H](COC(N)=O)C3=C(C(=O)C(C)=C(N)C3=O)N1C[C@@H]1N[C@@H]12` [MMC, mitomycin-C], in data set [1], the “HIF-1 expression (IHC)” value is reported as “significantly lower”. Further, the “average mouse body weights compared to ONB-MMC groups” value in data set [2] is listed as “significantly lower”. In addition, in data set [3], the “tumor volume compared to CTRL” value is on record as “significant in reducing the tumor volume”. Besides, in data set [4], the “VEGF expression (IHC)” value is reported as “significantly lower”. Also, the “effect on MB49 cell viability (factorial design)” value in data set [5] (MMC 0.05-5 μg/mL, ONB 0.2-20 mg/mL) was “significant in decreasing cell viability”. Also, the “effect of ultrasound beam steering on cell viability” value in data set [5] (beam ON/OFF, MMC 0.5 μg/mL and ONB 2 mg/mL at medium concentration) was “No significant effect”.

Source of the values: US11821892B2, “Nanobubbles” (Purdue Research Foundation, priority 2014, dated 2023).
